Assays:
Assay type in all cases: in vivo
Lolium perenne (LOLPE) [1] = test: Post-emergence herbicidal activity (B2); conditions: Test B2a; post-emergence application; rate 1000 g/ha; evaluated after 13 days; score 0-5
Experimental: (§1) Seeds of a variety of test species were sown in standard soil in pots: Triticum aestivium (TRZAW), Avena fatua (AVEFA), Alopecurus myosuroides (ALOMY), Echinochloa crus-galli (ECHCG), Lolium perenne (LOLPE), Zea Mays (ZEAMX), Abutilon theophrasti (ABUTH), Amaranthus retroflexus (AMARE) and Setaria faberi (SETFA). […] The test plants were then grown in a glasshouse under controlled conditions (at 24/16° C., day/night; 14 hours light; 65% humidity) and watered twice daily. After 13 days, the test was evaluated (5=total damage to plant; 0=no damage to plant).

[2] = test system: Abutilon theophrasti (ABUTH); test: Post-emergence herbicidal activity (B2); conditions: Test B2a; post-emergence application; rate 1000 g/ha; evaluated after 13 days; score 0-5
Experimental: as §1

[3] = test system: Amaranthus retroflexus (AMARE); test: Post-emergence herbicidal activity (B2); conditions: Test B2a; post-emergence application; rate 1000 g/ha; evaluated after 13 days; score 0-5
Experimental: as §1

Zea Mays (ZEAMX) [4] = test: Post-emergence herbicidal activity (B2); conditions: Test B2a; post-emergence application; rate 1000 g/ha; evaluated after 13 days; score 0-5
Experimental: as §1

Setaria faberi (SETFA) [5] = test: Post-emergence herbicidal activity (B2); conditions: Test B2a; post-emergence application; rate 1000 g/ha; evaluated after 13 days; score 0-5
Experimental: as §1

[6] = test system: Echinochloa crus-galli (ECHCG); test: Post-emergence herbicidal activity (B2); conditions: Test B2a; post-emergence application; rate 1000 g/ha; evaluated after 13 days; score 0-5
Experimental: as §1

Lolium perenne (LOLPE) [7] = test: Pre-emergence herbicidal activity (B1); conditions: Test 1a; pre-emergence application; rate 1000 g/ha; evaluated after 13 days; score 0-5
Experimental: as §1

[8] = test system: Abutilon theophrasti (ABUTH); test: Pre-emergence herbicidal activity (B1); conditions: Test 1a; pre-emergence application; rate 1000 g/ha; evaluated after 13 days; score 0-5
Experimental: as §1

[9] = test system: Amaranthus retroflexus (AMARE); test: Pre-emergence herbicidal activity (B1); conditions: Test 1a; pre-emergence application; rate 1000 g/ha; evaluated after 13 days; score 0-5
Experimental: as §1

Zea Mays (ZEAMX) [10] = test: Pre-emergence herbicidal activity (B1); conditions: Test 1a; pre-emergence application; rate 1000 g/ha; evaluated after 13 days; score 0-5
Experimental: as §1

Setaria faberi (SETFA) [11] = test: Pre-emergence herbicidal activity (B1); conditions: Test 1a; pre-emergence application; rate 1000 g/ha; evaluated after 13 days; score 0-5
Experimental: as §1

[12] = test system: Echinochloa crus-galli (ECHCG); test: Pre-emergence herbicidal activity (B1); conditions: Test 1a; pre-emergence application; rate 1000 g/ha; evaluated after 13 days; score 0-5
Experimental: as §1

**Q.** Which “damage to plant, LOLPE” value (Lolium perenne (LOLPE) [1]) does the source give for `Cc1nc(-c2cncnc2)cnc1N` [Compound G1] here?
**A.** The value was 1.

**Q.** And the “damage to plant, ABUTH” value [2]?
**A.** The value was 1.

**Q.** What about the “damage to plant, AMARE” value [3] of the same compound?
**A.** Its value is 2.

**Q.** What about the “damage to plant, ZEAMX” value (Zea Mays (ZEAMX) [4]) of the same compound?
**A.** Its value is 2.

**Q.** What about the “damage to plant, SETFA” value (Setaria faberi (SETFA) [5]) of the same compound?
**A.** Its value is 2.

**Q.** What about the “damage to plant, ECHCG” value [6] of the same compound?
**A.** The value was 1.

**Q.** What about the “damage to plant, LOLPE” value (Lolium perenne (LOLPE) [7]) of the same compound?
**A.** The value was 0.

**Q.** What about the “damage to plant, ABUTH” value [8] of the same compound?
**A.** The value was 0.

**Q.** What about the “damage to plant, AMARE” value [9] of the same compound?
**A.** Its value is 0.

**Q.** What about the “damage to plant, ZEAMX” value (Zea Mays (ZEAMX) [10]) of the same compound?
**A.** Its value is 1.

**Q.** And the “damage to plant, SETFA” value (Setaria faberi (SETFA) [11])?
**A.** Its value is 2.

**Q.** What about the “damage to plant, ECHCG” value [12] of the same compound?
**A.** The value was 1.

Source: patent publication US11229205B2, “Herbicidally active pyridyl-/pyrimidyl-pyrazine derivatives” (Syngenta Participations AG, priority 2017, dated 2022)
